Tests used:
Type in all cases: cell-based
SupT1 CD22 High [1] = assay: FBK assay with or without 3-IB-PP1, Example 4, SupT1 CD22 High; details: 3-IB-PP1 10 uM; T cells expressing CSK^AS; CD22 High (20,262 molecules per cell); E:T 1:4; 72 h
Description: (§1) Analysis by flow cytometry was carried out at 72 h post co-culture set up. Each condition was tested with a minimum of 6 donors (n=6), with median indicated. All data was normalised to NT T cells. T cells were co-cultured with SupT1 NT (left), SupT1 CD22 High (middle) or SupT1 CD22 Low (right) target cells at an E:T ratio of 1:4. Statistics were run using a paired t-test. *P<0.05, **P<0.01, ***P<0.001, ****P<0.0001.
(§2) PBMCs were either left untransduced or transduced with one of the constructs. The capacity of the CAR-T cells to kill target cells expressing CD22 was investigated using a FACS-based killing (FBK) assay. […] Two different types of CD22-expressing SupT1 target cells were generated, one expressing CD22 at a low density (average number of CD22 molecules per cell: 3,309) and one expressing CD22 at a high density (average number of CD22 molecules per cell: 20,262).

SupT1 CD22 Low [2] = assay: FBK assay with or without 3-IB-PP1, Example 4, SupT1 CD22 Low; details: 3-IB-PP1 10 uM; T cells expressing CSK^AS; CD22 Low (3,309 molecules per cell); E:T 1:4; 72 h
Description: as §1, §2

SupT1 CD22 High [3] = assay: IL-2 release ELISA, Example 4, SupT1 CD22 High; details: 3-IB-PP1 10 uM, CSK^AS expressing T cells, E:T 1:4, 72 h
Description: (§3) Supernatant taken at 72 h post co-culture set up was analysed by ELISA for the presence of IL-2. Each condition was tested with a minimum of 6 donors (n=6), with median indicated. T cells were co-cultured with SupT1 NT (left), SupT1 CD22 High (middle) or SupT1 CD22 Low (right) target cells at an E:T ratio of 1:4.
(§4) In order to investigate cytokine release, supernatant was taken at 72 h post co-culture set up and analysed by ELISA for the presence of IL-2 and IFN-γ.

SupT1 CD22 Low [4] = assay: IL-2 release ELISA, Example 4, SupT1 CD22 Low; details: 3-IB-PP1 10 uM, CSK^AS expressing T cells, E:T 1:4, 72 h
Description: as §3, §4

SupT1 CD22 High [5] = assay: IFN-γ release ELISA, Example 4, SupT1 CD22 High; details: 3-IB-PP1 10 uM, T cells expressing CSK^AS, E:T 1:4, 72 h
Description: as §3, with “IFN-γ.” for “IL-2.”
as §4

SupT1 CD22 Low [6] = assay: IFN-γ release ELISA, Example 4, SupT1 CD22 Low; details: 3-IB-PP1 10 uM, T cells expressing CSK^AS, E:T 1:4, 72 h
Description: as §3, with “IFN-γ.” for “IL-2.”
as §4

SupT1 CD22 High [7] = assay: FBK assay with increasing concentrations of 3-IB-PP1, Example 5; details: 3-IB-PP1 0.156 uM-10 uM; T cells expressing CSK^AS; CD22 High (6,309 molecules per cell); E:T 1:4; 72 h
Description: (§5) Analysis by flow cytometry was carried out at 72 h post co-culture set up. Each condition was tested with a minimum of 3 donors (n=3), with median indicated. All data was normalised to NT T cells. T cells were co-cultured with SupT1 NT (left) or SupT1 CD22 High (right) target cells at an E:T ratio of 1:4.
(§6) The co-culture described in Example 4 was repeated, but this time with increasing concentrations of 3-IB-PP1 (0.156 uM-10 uM).

SupT1 CD22 High [8] = assay: IFN-γ release with increasing concentrations of 3-IB-PP1, Example 5; details: 3-IB-PP1 0.156 uM-10 uM, T cells expressing CSK^AS, E:T 1:4, 72 h
Description: as §5, §6

Structure (SMILES): CC(C)(C)n1nc(Cc2cccc(I)c2)c2c(N)ncnc21 [3-IB-PP1, 3-iodo-benzyl-PP1]
- cytotoxicity (SupT1 CD22 High [1]): significantly increased compared to the media condition
- cytotoxicity (SupT1 CD22 Low [2]): significantly increased compared to the media condition
- IL-2 release (SupT1 CD22 High [3]): increased levels of IL-2
- IL-2 release (SupT1 CD22 Low [4]): increased levels of IL-2
- IFN-γ release (SupT1 CD22 High [5]): significantly higher IFN-γ concentrations compared to the media condition
- IFN-γ release (SupT1 CD22 Low [6]): significantly higher IFN-γ concentrations compared to the media condition
- cytotoxicity (SupT1 CD22 High [7]): increased in a dose-dependent manner
- IFN-γ production (SupT1 CD22 High [8]): increased in a dose-dependent manner

From patent publication US20230233606A1, “Cell” (AUTOLUS LIMITED, priority 2019, published 2023)
